Experimental data: patent US8815935B2, “Inhibitors of protein prenyltransferases” (The Regents of the University of California, priority 2008, dated 2014)
Like-named read-outs stand apart in the source and are kept apart here.

Columns and labels:
GGTase-I = target: T1, GGTase-I (Rattus norvegicus, UniProt P53610+Q04631); test: In vitro GGTase-I enzyme assay (IC50, kinetics); format: biochemical
T1 construct: purchased JENA BIOSCIENCE
Experimental: The GGTase-I assay was carried out using RhoA as a substrate protein, GGTase-I (JENA Bioscience) and [3H]geranylgeranyl pyrophosphate. Incubation was for 30 min at 37° C. GGTase-II (or RabGGTase) assay was carried out using YPTI as a substrate protein, GGTase-II (Calbiochem, San Diego, Calif.) plus REP1 (Calbiochem) and [3H]geranylgeranyl pyrophosphate. Incubation was for 30 min at 37° C. FIGS. 20D-20F show the three dimensional structure of GGTase I (D), FTsse (E) and GGTase II (F) which can be obtained from X-ray diffraction studies of protein crystals.
(§1) GGTase-I and FTase activities were determined by following the incorporation of radiolabeled isoprenoid [^3H]-geranylgeranyl or [^3H]-farnesyl into substrate proteins. FTase or GGTase-I (50 nM) were used to initiate reactions containing 0.4 μM of [^3H]-FPP or 0.5 μM of [^3H]-GGPP and 2 μM of MBP-tagged substrates (K-Ras4B for FTase; RhoA for GGTase-I) in 20 μl of buffer {50 mM Tris-HCl (pH 7.5), 10 mM MgCl2, […] and 5 mM DTT}. Inhibitors were added at the indicated concentrations. The final DMSO concentration was 2.5% for all samples.
(§2) Reactions were carried out for 10 min at 30° C. The reaction mixture was spotted onto a filter paper, treated with 10% trichloroacetic acid (TCA) followed by ethanol and acetone washing. The filter was counted using a scintillation counter. Kinetic assays in which the GGPP concentration was varied employed fixed concentrations of GGTase-I and RhoA, and reactions were carried out for 5 min. Similarly, fixed concentrations of GGTase-I and GGPP were used when the amount of RhoA was varied.

Jurkat cells = test: Jurkat cell growth inhibition; format: cell-based, human
Experimental: In Table 4 in cell GI50 values for the growth inhibition of Jurkat cells are reported. The GI50 value is the concentration of a test compound needed to produce 50% growth inhibition in the cell type listed. In Table 4 the isolated yield of each synthetic step for the synthesis of corresponding compounds are also reported.
(§3) Panc-1 cells (Pancreatic cancer cell line) and Jurkat cells (T-cell leukemia) were treated with 12.5 μM of P5-H6 or 12.5 μM of mP5-H6a for 72 hours. The cell number was counted as described in Example 5.
(§4) Cell viability was determined by Cell Counting Kit-8 (CCK-8, Dojindo, Kumamoto, Japan) as described previously (31). Cell viability was calculated relative to the DMSO control. Cell cycle profile was analyzed by flow cytometry as described previously (32).

K562 cells = test: K562 cell growth inhibition; format: cell-based, human; details: no unit printed there
Experimental: K562 cells are a cell line of human erythroleukemia cells. The K562 cells were treated with P3-E5, P5-H6 or GGTI-298 (a known GGTI compound illustrated in FIG. 27) for 72 hours and then cell number was counted using cell counting kit-8 (Dojindo, Gaithersburg, Md.). Cell viability relative to the DMSO control and the known GGTI compound is plotted in FIG. 23.
as §4

BT474 = BT474 cell growth inhibition; format: cell-based, human; details: no unit printed there
Experimental: (§5) In FIG. 9-24 in vitro IC50 values for the GGTase I activity are reported. In Tables 7-15 in cell GI50 values for the growth inhibition of a variety of cancer cell lines (e.g., Jurkat, K562, MDA-MB-231, BT474, MCF7, MiaPaCa2, Aspc-1, Panc-1, Capan-2, CFpac-1, and MCF10a) are reported.
as §4

MCF7 = MCF7 cell growth inhibition; format: cell-based, human; details: Homo sapiens, MCF7, Tables 8-15; no unit printed there
Experimental: as §5, §4

MCF10a = MCF10a cell growth inhibition; format: cell-based; details: Homo sapiens, MCF-10A, Tables 8-15; no unit printed there
Source text: as §5

MiaPaCa2 = MiaPaCa2 cell growth inhibition; format: cell-based, human; details: no unit printed there
Experimental: as §5, §4

Aspc-1 = Aspc-1 cell growth inhibition; format: cell-based, human; details: no unit printed there
Experimental: as §5, §4

Panc-1 = Panc-1 cell growth inhibition; format: cell-based, human; details: no unit printed there
Experimental: as §5, §3, §4

Capan-2 = Capan-2 cell growth inhibition; format: cell-based, human; details: no unit printed there
Experimental: as §5, §4

CFpac-1 = CFpac-1 cell growth inhibition; format: cell-based, human; details: no unit printed there
Experimental: as §5, §4

MDA-MB-231 = MDA-MB-231 cell growth inhibition; format: cell-based, human; details: no unit printed there
Experimental: as §5, §4

FTase = target: T2, FTase (Rattus norvegicus, UniProt Q02293+Q04631); test: In vitro FTase assay (K-Ras4B substrate, [3H]FPP); format: biochemical; details: P3-D9, P3-E5: concentration increased to 100 (unit not given)
T2 construct: purchased JENA BIOSCIENCE
Source text: To further characterize the pilot library, inhibitors of protein farnesyltransferase were identified. This was accomplished by using K-Ras4B as a substrate protein, tritiated farnesylpyrophosphate ([^3H]FPP) and protein farnesyltransferase. See Finegold, A. A., Johnson, D. I., Farnsworth, C. C., Gelb, M. H., Judd, S. R., Glomset, J. A. and Tamanoi, F. (1991) Protein geranylgeranyltransferase of Saccharomyces cerevisiae is specific for Cys-Xaa-Xaa-Leu motif and requires the CDC43 gene product but not the DPR1 gene product. Proc. Natl. Acad. Sci. USA 88, 4448-4452. […] On the other hand, the structure of the compounds P1-F11, P2-B7 and P2-E9 resemble those of GGTIs. The FTI P1-F11 resembles the GGTI P1-F10, while the FTI P2-B7 resembles the GGTI P2-C10. The FTI P2-E9 is similar to the GGTI P2-G3. Similarity of some GGTI and FTI compounds may point to common structural features between the two closely related enzymes. As described before, FTase and GGTase I have similar three-dimensional structures and a shared alpha subunit. On the other hand, FTase specific inhibitors may recognize a region(s) that is different between the two enzymes.
Examples 2-8 illustrate assays of bioactivity. These methods are applicable to the compounds of the present invention having the particular linkers and scaffolds described herein, to determine their activity. […] Varying concentrations of the two compounds were added to each enzyme reaction. The FTase (protein farnesyltransferase) assay was carried out using K-Ras4B as a substrate protein, FTase (JENA Bioscience, San Diego, Calif.) and [3H]farnesyl pyrophosphate. Incubation was for 30 min at 37° C.
as §1, §2

[1] = Tables 3, 5, 7, read-out: In vitro (enzyme assay) IC50, GGTase I
[2] = Tables 8-15, no unit printed there (Table 7 head: μM unless otherwise specified), read-out: In vitro (GGTase I IC50)
[3] = Homo sapiens, Jurkat, Tables 8-15, no unit printed there, read-out: Jurkat GI50
[4] = Homo sapiens, K562, Tables 8-15
[5] = Homo sapiens, BT-474, Tables 8-15
[6] = Homo sapiens, MIA PaCa-2, Tables 8-15
[7] = Homo sapiens, ASPC1, Tables 8-15
[8] = Homo sapiens, PANC-1, Tables 8-15
[9] = Homo sapiens, Capan-2, Tables 8-15
[10] = Homo sapiens, CFPAC-1, Tables 8-15
[11] = Homo sapiens, MDA-MB-231, Tables 8-15

| Structure (SMILES) | IC50 (GGTase-I; [1]) [µM] | IC50 (GGTase-I; [2]) [µM] | GI50 (Jurkat cells; [3]) [µM] | GI50 (K562 cells; [4]) [µM] | GI50 (BT474; [5]) [µM] | GI50 (MCF7) [µM] | GI50 (MCF10a) [µM] | GI50 (MiaPaCa2; [6]) [µM] | GI50 (Aspc-1; [7]) [µM] | GI50 (Panc-1; [8]) [µM] | GI50 (Capan-2; [9]) [µM] | GI50 (CFpac-1; [10]) [µM] | GI50 (MDA-MB-231; [11]) [µM] | also measured |
| --- | --- | --- | --- | --- | --- | --- | --- | --- | --- | --- | --- | --- | --- | --- |
| Cc1ccccc1S(=O)(=O)N1[C@@H](c2ccc(Cl)cc2)C(C(=O)N[C@@H](Cc2ccccc2)C(N)=O)=C[C@H]1C(C)CC(C)(C)C (some centres unmarked) [P61-C03] | > 10 | > 10 | 9.79 | 6.3 | 10.8 | 3.1 | 9.16 | 7.17 | 11.4 | 8.85 | 10.5 | 1.25 |  | GI50 (Jurkat cells; Homo sapiens, Jurkat, Tables 4, 6, 7, read-out: Jurkat cell GI50): 9.76 µM |
| Cc1ccccc1S(=O)(=O)N1[C@@H](c2ccc(Cl)cc2)C(C(=O)N[C@@H](CC(C)C)C(N)=O)=C[C@H]1C(C)(C)C [drawing 164] |  |  |  |  |  |  |  | 7.24 | 11.4 | 6.45 | 6.69 | < 1.25 |  |  |
| Cc1ccccc1S(=O)(=O)N1[C@@H](c2ccc(Cl)cc2)C(C(=O)N[C@@H](CC(C)C)C(N)=O)=C[C@H]1C(C)(C)C [drawing 156] |  | 8.1 | 6.58 | 6.7 | 5.28 |  |  |  |  |  |  |  | 6.68 |  |
| Cn1cncc1CN1C[C@@H](Cc2ccccc2)N(S(=O)(=O)c2cccs2)Cc2cc(C#N)ccc21 [BMS225975, reference compound] |  |  |  |  |  |  |  |  |  |  |  |  |  | inhibition of GGTase I (FIG. 16 controls) (GGTase-I): does not inhibit GGTase I; inhibition of FTase activity (FIG. 16) (FTase): inhibits FTase |
| Cc1ccccc1S(=O)(=O)N1[C@@H](c2ccc(Cl)cc2)C(C(=O)N[C@@H](Cc2ccccc2)C(N)=O)=C[C@H]1C(C)(C)C [P61A6] |  |  | 4.89 | 6.28 | 8.64 | 3.72 | 13.2 | 7.48 | 12.4 | 13 | 11.5 | 6.38 | 8.25 |  |
| Cc1ccccc1S(=O)(=O)N1[C@@H](c2ccc(Cl)c(Cl)c2)C(C(=O)N[C@@H](Cc2ccccc2)C(N)=O)=C[C@H]1C(C)(C)C [P61-B11] | 7.6 | 7.6 |  |  |  | 4.74 | 9.38 |  |  |  |  |  |  | GI50 (Jurkat cells; Tables 4, 6, 7, read-out: Jurkat cell GI50): 6.9 µM; GI50 (Jurkat cells; Tables 8-15, no unit printed there, read-out: Jurkat GI50): 6.9 µM; GI50 (K562 cells; Tables 8-15): 6.9 µM; GI50 (MDA-MB-231; Tables 8-15): 5.54 µM; GI50 (BT474; Tables 8-15): 10.6 µM; GI50 (MiaPaCa2; Tables 8-15): 7.49 µM; GI50 (Aspc-1; Tables 8-15): 11.5 µM; GI50 (Panc-1; Tables 8-15): 7.52 µM; GI50 (Capan-2; Tables 8-15): 11.3 µM; GI50 (CFpac-1; Tables 8-15): 2.03 µM |
